Experimental data: patent publication US20210127726A1, “METHODS FOR IMPROVING THE SOLUBILITY OF STEVIOL GLYCOSIDE MIXTURES, AND USES” (The Coca-Cola Company, priority 2018, published 2021)

Experiment: Aqueous solubility of steviol glycosides and blends
Format: physicochemical
Experimental: A number of methods are known in the art for determining aqueous solubility. In one such method, solubility can be determined by a solvent addition method in which a weighed sample is treated with aliquots of aqueous solvent. The mixture is generally vortexed and/or sonicated between additions to facilitate dissolution. Complete dissolution of the test material is determined by visual inspection. Solubility is calculated based on the total solvent used to provide complete dissolution.
Another method for determining solubility is by measuring the turbidity (NTU units) of a composition using a turbidimeter, such as HACH 2100 AN. In a typical experiment, a portion of the composition to be measured is added to a portion of aqueous solvent (or visa versa) at room temperature. Turbidity is measured after waiting from 2-10 minutes to observe visual dissolution of the portion. Then, another portion of the composition is added, dissolution is observed and turbidity is measured again. This process is repeated until turbidity reaches exceeds beyond acceptable values, typically around 4 NTU-10 NTU. While turbidity measurements can be very useful in determining solubility, it will not detect solids collected on the bottom of a container. Accordingly, it is important to shake the container prior to determining turbidity and confirm a given turbidity measurement with visual inspection of dissolution. […]

| SMILES | aqueous solubility [wt %] |
| --- | --- |
| C=C1C[C@@]23CC[C@H]4[C@@](C)(CCC[C@@]4(C)C(=O)O[C@@H]4O[C@H](CO)[C@@H](O)[C@H](O[C@@H]5O[C@H](CO)[C@@H](O)[C@H](O)[C@H]5O)[C@H]4O[C@@H]4O[C@H](CO)[C@@H](O)[C@H](O)[C@H]4O)[C@@H]2CC[C@]1(O[C@@H]1O[C@H](CO)[C@@H](O)[C@H](O[C@@H]2O[C@H](CO)[C@@H](O)[C@H](O)[C@H]2O)[C@H]1O[C@@H]1O[C@H](CO)[C@@H](O)[C@H](O)[C@H]1O)C3 [Pure reb M, 13-[(2-O-β-D-glucopyranosyl-3-O-β-D-glucopyranosyl-β-D-glucopyranosyl)oxy] ent kaur-16-en-19-oic acid-[(2-O-β-D-glucopyranosyl-3-O-β-D-glucopyranosyl-β-D-glucopyranosyl) ester]] | 0.1 |
| C=C1C[C@@]23CC[C@H]4[C@@](C)(CCC[C@@]4(C)C(=O)O[C@@H]4O[C@H](CO)[C@@H](O)[C@H](O)[C@H]4O[C@@H]4O[C@H](CO)[C@@H](O)[C@H](O)[C@H]4O)[C@@H]2CC[C@]1(O[C@@H]1O[C@H](CO)[C@@H](O)[C@H](O[C@@H]2O[C@H](CO)[C@@H](O)[C@H](O)[C@H]2O)[C@H]1O[C@@H]1O[C@H](CO)[C@@H](O)[C@H](O)[C@H]1O)C3 [Pure reb D, rebaudioside D] | 0.05 |
